Values quoted from earlier work, collected in patent publication US4307083A, “LRF Antagonists” (The Salk Institute for Biological Studies, priority 1980, dated 1981).
Non-standard residues stand in square brackets, D forms with d. pGlu = O=C1CC[C@@H](C(=O)O)N1

Test system: release of gonadotropins
Details: versus des-His2 peptide with Gly instead of D-Ala at position 6

In the case of [pGlu]WSY[dA]LRPG-NH2, the “Potency as inhibitor of gonadotropin release relative to the same peptide with Gly in the 6-position” value is given as 3 times.
